The values that follow come from ChEMBL document CHEMBL1150003, “Chiral carbocylic nucleosides: The synthesis and antiviral activity of 4-hydroxy and 4-fluorocarbocyclic - 2- deoxyguanosines” (1993).

Molecules are shown by their SMILES. Converted amounts (≈) assume the structure as drawn. A value given as a limit tells only on which side of the number the result lay.

Format in all cases: functional
Holding throughout (conditions): Chlorocebus sabaeus, read-out: ID50 (the source's name)

The subject of test [1] is Vero. The experiment in a line: Tested for the concentration required to inhibit HSV-1 strain KOS cytopathic effect by 50% in vero cells. (Protection from cytopathic effect is a common read-out in antiviral testing.)
Test [2] relates to Vero. The experiment in a line: Tested for the concentration required to inhibit HSV-2 strain 186 cytopathic effect by 50% in vero cells.
The subject of test [3] is Vero. The test can be described thus: Tested for the cytotoxic effect in vero cell monolayers after incubation for 48 hr at 37 degree Centigrade.

On to `Nc1nc(O)c2ncn(C3CC(O)C(F)(CO)C3)c2n1` (stereo not given), for which the values for the IC50 with Vero [1], with Vero [2] and in the test with Vero [3] were 0.15 µg/mL (≈ 0.53 µM), 0.36 µg/mL (≈ 1.27 µM) and 100 µg/mL (≈ 353 µM), respectively.

As to `Nc1nc2c(ncn2COCCO)c(=O)[nH]1` [ACYCLOVIR], the IC50 is 0.2 µg/mL (≈ 0.888 µM) in the test on Vero [1], 0.6 µg/mL (≈ 2.66 µM) with Vero [2] and greater than 300 µg/mL with Vero [3].

Regarding `Nc1nc(O)c2ncn([C@H]3C[C@H](O)[C@@](O)(CO)C3)c2n1`, the IC50 was 0.15 µg/mL (≈ 0.533 µM) in the test on Vero [1], 0.26 µg/mL (≈ 0.924 µM) in the test with Vero [2] and greater than 900 µg/mL in the test with Vero [3].

`Nc1nc(O)c2ncn([C@H]3C[C@H](O)[C@](O)(CO)C3)c2n1`: the IC50 is 70 µg/mL (≈ 249 µM) with Vero [1], 65 µg/mL (≈ 231 µM) in the test with Vero [2] and greater than 300 µg/mL with Vero [3].

Turning to `Nc1nc(O)c2ncn([C@@H]3C[C@H](CO)[C@@H](O)C3)c2n1`, the IC50 in the test on Vero [1] was 0.06 µg/mL (≈ 0.226 µM); in the test on Vero [2], 0.44 µg/mL (≈ 1.66 µM); with Vero [3], 300 µg/mL (≈ 1130 µM).
